pIC50: −log10 of the molar value. Activity calls are given as the source filed them. The calls are words filed in the database; no cut-off is given here.
Columns and labels:
[1] = system: RAW264.7; assay: Cytotoxicity against mouse RAW264.7 cells assessed as cell viability at 20 to 40 uM incubated for 24 hrs by CCK8 assay; type: toxicity, cell-based; conditions: raw264.7, 24 h, dose 20-40 µM
[2] = system: RAW264.7; assay: Anti-inflammatory activity in LPS-induced mouse RAW264.7 cells assessed as inhibition of NO production; type: functional, cell-based
[3] = system: RAW264.7; assay: Anti-inflammatory activity in LPS-induced mouse RAW264.7 cells assessed as downregulation of TNF-alpha mRNA transcription at 10 to 40 uM pre-incubated with compound for 1 hr followed by LPS induction and measured after 6 hrs by qRT-PCR analysis; type: functional, cell-based; conditions: dose 10-40 µM
[4] = system: RAW264.7; assay: Anti-inflammatory activity in LPS-induced mouse RAW264.7 cells assessed as downregulation of iNOS mRNA transcription at 10 to 40 uM pre-incubated with compound for 1 hr followed by LPS induction and measured after 6 hrs by qRT-PCR analysis; type: functional, cell-based; conditions: dose 10-40 µM
[5] = system: RAW264.7; assay: Effect on P38 phosphorylation in LPS-induced mouse RAW264.7 cells at 5 to 40 uM pre-incubated with compound for 1 hr followed by LPS induction and measured after 10 mins by Western blot analysis; type: functional, cell-based; conditions: dose 5-40 µM
[6] = system: RAW264.7; assay: Anti-inflammatory activity in LPS-induced mouse RAW264.7 cells assessed as downregulation of IL-6 mRNA transcription at 10 to 40 uM pre-incubated with compound for 1 hr followed by LPS induction and measured after 6 hrs by qRT-PCR analysis; type: functional, cell-based; conditions: dose 10-40 µM
[7] = system: RAW264.7; assay: Anti-inflammatory activity in LPS-induced mouse RAW264.7 cells assessed as inhibition of NO production incubated for 24 hrs by Griess reagent based microplate reader analysis; type: functional, cell-based; conditions: RAW264.7, 24 h
[8] = system: RAW264.7; assay: Anti-inflammatory activity in LPS-induced mouse RAW264.7 cells assessed as reduction in iNOS level pre-incubated with compound for 1 hr followed by LPS induction and measured after 6 hrs by Western blot analysis; type: functional, cell-based; conditions: dose 5-40 µM
[9] = system: RAW264.7; assay: Inhibition of MAPK signalling pathway in LPS-induced mouse RAW264.7 cells assessed as downregulation of ERK1/2 phosphorylation pre-incubated with compound for 1 hr followed by LPS induction and measured after 10 mins by Western blot analysis; type: cell-based; conditions: dose 5-40 µM
[10] = system: RAW264.7; assay: Anti-inflammatory activity in LPS-induced mouse RAW264.7 cells assessed as reduction in COX-2 level pre-incubated with compound for 1 hr followed by LPS induction and measured after 6 hrs by Western blot analysis; type: functional, cell-based; conditions: dose 5-40 µM
[11] = system: RAW264.7; assay: Effect on JNK phosphorylation in LPS-induced mouse RAW264.7 cells at 5 to 40 uM pre-incubated with compound for 1 hr followed by LPS induction and measured after 10 mins by Western blot analysis; type: functional, cell-based; conditions: dose 5-40 µM

## C[C@H]1CC(=O)O[C@@H]1[C@](C)(O)/C=C/C1=CC2=CC(=O)[C@](C)(O)[C@@H](O)C2=CO1
[1]
  Activity: Non-toxic

## C[C@H]1CCO[C@@H]1[C@](C)(O)/C=C/C1=CC2=CC(=O)[C@](C)(O)[C@@H](O)[C@@H]2CO1
[1]
  Activity: Non-toxic

## C[C@H]1CCO[C@@H]1[C@@](C)(O)/C=C/C1=CC2=CC(=O)[C@](C)(O)[C@@H](O)[C@@H]2CO1
[1]
  Activity: Non-toxic

## C[C@H]1CC(=O)O[C@@H]1[C@@](C)(O)/C=C/C1=CC2=C(Cl)C(=O)[C@](C)(O)[C@H](O)[C@@H]2CO1
[1]
  Activity: Non-toxic

## C[C@H]1CC(=O)O[C@@H]1[C@@](C)(O)/C=C/C1=CC2=CC(=O)[C@](C)(O)[C@@H](O)[C@H]2CO1
[1]
  Activity: Non-toxic

## C[C@H]1CC(=O)O[C@@H]1[C@](C)(O)/C=C/C1=CC2=C(Cl)C(=O)[C@](C)(O)[C@H](O)[C@@H]2CO1
[1]
  Activity: Non-toxic

## O=c1c(O)c(-c2ccc(O)c(O)c2)oc2cc(O)cc(O)c12 [QUERCETIN]
[2]
  pIC50: 4.81

## C[C@H]1CC(=O)O[C@@H]1[C@](C)(O)/C=C/C1=CC2=CC(=O)[C@](C)(O)[C@@H](O)[C@H]2CO1
[1]
  Activity: Non-toxic

## C[C@H]1CC(=O)O[C@@H]1[C@@](C)(O)/C=C/C1=CC2=CC(=O)[C@](C)(O)[C@@H](O)C2=CO1
[1]
  Activity: Non-toxic

## C[C@H]1CCO[C@@H]1[C@@](C)(O)/C=C/C1=CC2=CC(=O)[C@](C)(O)[C@@H](O)[C@]2(O)CO1
[1]
  Activity: Non-toxic

## C[C@H]1CC(=O)O[C@@H]1[C@@](C)(O)/C=C/C1=CC2=CC(=O)[C@](C)(O)[C@@H](O)[C@@H]2CO1
[1]
  Activity: Non-toxic

## C[C@H]1CCO[C@@H]1[C@](C)(O)/C=C/C1=CC2=CC(=O)[C@](C)(O)[C@@H](O)[C@]2(O)CO1
[1]
  Activity: Non-toxic

## C[C@H]1CC(=O)O[C@@H]1[C@](C)(O)/C=C/C1=CC2=CC(=O)[C@](C)(O)[C@@H](O)[C@@H]2CO1
[3]
  Activity: Active
[4]
  Activity: Active
[5]
  Activity: inactive
[6]
  Activity: Active
[7]
  pIC50: 4.78
[8]
  Activity: Dose-dependent-effect
[9]
  inhibition: Dose-dependent-effect
[10]
  Activity: Dose-dependent-effect
[1]
  Activity: Non-toxic
[11]
  Activity: inactive

Reference: ChEMBL document CHEMBL6177966, “Sclerotiorin-Type Azaphilones Isolated from a Marine-Derived Fungus Microsphaeropsis arundinis P1B” (J Nat Prod, 2025)
